Experiment: xn = mol fraction of the nth substance listed
Settings: Fluid (supercritical or subcritical phases), Buoyancy - hydrostatic balance with magnetic suspension - one sinker

C [methane] + O=C=O
Settings | mass density [kg/m3]
299.61 K, 4220 kPa, x2 = 0.6015 | 65.102
299.93 K, 5997 kPa, x2 = 0.3997 | 77.827
299.94 K, 6004 kPa, x2 = 0.6015 | 100.404
299.95 K, 9002 kPa, x2 = 0.2017 | 95.03
299.95 K, 15006 kPa, x2 = 0.8988 | 723.669
299.96 K, 5002 kPa, x2 = 0.6015 | 79.746
299.96 K, 7003 kPa, x2 = 0.3997 | 93.846
299.96 K, 7999 kPa, x2 = 0.2017 | 82.733
299.96 K, 8008 kPa, x2 = 0.8988 | 302.149
299.96 K, 12001 kPa, x2 = 0.3997 | 186.929
299.97 K, 5996 kPa, x2 = 0.7985 | 129.225
299.97 K, 6997 kPa, x2 = 0.2017 | 70.838
299.97 K, 8000 kPa, x2 = 0.3997 | 110.726
299.97 K, 10986 kPa, x2 = 0.8988 | 631.428
299.97 K, 13852 kPa, x2 = 0.0998 | 130.843
299.98 K, 2118 kPa, x2 = 0.0998 | 16.647
299.98 K, 4383 kPa, x2 = 0.0998 | 35.981
299.98 K, 7000 kPa, x2 = 0.6015 | 123.126
299.98 K, 7004 kPa, x2 = 0.8988 | 203.104
299.98 K, 8002 kPa, x2 = 0.6015 | 148.65
299.98 K, 8997 kPa, x2 = 0.3997 | 128.548
299.98 K, 8997 kPa, x2 = 0.8988 | 483.358
299.98 K, 9722 kPa, x2 = 0.0998 | 87.624
299.98 K, 10003 kPa, x2 = 0.7985 | 353.847
299.98 K, 10997 kPa, x2 = 0.7985 | 428.638
299.99 K, 4000 kPa, x2 = 0.2017 | 37.902
299.99 K, 4003 kPa, x2 = 0.3997 | 48.763
299.99 K, 4192 kPa, x2 = 0.0998 | 34.275
299.99 K, 4997 kPa, x2 = 0.7985 | 99.658
299.99 K, 6002 kPa, x2 = 0.2017 | 59.46
299.99 K, 10005 kPa, x2 = 0.2017 | 107.622
299.99 K, 12000 kPa, x2 = 0.2017 | 133.357
299.99 K, 12004 kPa, x2 = 0.6015 | 275.504
299.99 K, 12017 kPa, x2 = 0.8988 | 664.349
299.99 K, 14986 kPa, x2 = 0.0998 | 142.483
299.99 K, 18001 kPa, x2 = 0.2017 | 207.683
300 K, 3662 kPa, x2 = 0.2017 | 34.438
300 K, 6399 kPa, x2 = 0.0998 | 54.523
300 K, 7624 kPa, x2 = 0.0998 | 66.394
300 K, 8000 kPa, x2 = 0.7985 | 212.092
300 K, 10995 kPa, x2 = 0.3997 | 166.796
300 K, 14999 kPa, x2 = 0.2017 | 171.971
300 K, 17997 kPa, x2 = 0.6015 | 433.882
300.01 K, 5001 kPa, x2 = 0.2017 | 48.462
300.01 K, 8998 kPa, x2 = 0.7985 | 274.617
300.01 K, 9002 kPa, x2 = 0.6015 | 176.866
300.01 K, 11000 kPa, x2 = 0.2017 | 120.384
300.02 K, 2964 kPa, x2 = 0.0998 | 23.652
300.02 K, 3999 kPa, x2 = 0.7985 | 74.633
300.02 K, 6996 kPa, x2 = 0.7985 | 165.378
300.02 K, 9996 kPa, x2 = 0.6015 | 207.768
300.02 K, 10011 kPa, x2 = 0.8988 | 582.856
300.02 K, 15007 kPa, x2 = 0.3997 | 246.022
300.02 K, 18000 kPa, x2 = 0.0998 | 171.73
300.03 K, 5996 kPa, x2 = 0.8988 | 149.398
300.03 K, 10998 kPa, x2 = 0.6015 | 241.279
300.03 K, 11790 kPa, x2 = 0.0998 | 109.201
300.03 K, 17999 kPa, x2 = 0.8988 | 760.577
300.04 K, 5006 kPa, x2 = 0.8988 | 112.111
300.04 K, 6260 kPa, x2 = 0.0998 | 53.19
300.04 K, 12001 kPa, x2 = 0.7985 | 485.736
300.04 K, 14998 kPa, x2 = 0.6015 | 367.75
300.05 K, 18002 kPa, x2 = 0.3997 | 297.591
300.06 K, 5002 kPa, x2 = 0.3997 | 62.85
300.06 K, 17999 kPa, x2 = 0.7985 | 637.414
300.07 K, 9277 kPa, x2 = 0.0998 | 82.984
300.07 K, 14999 kPa, x2 = 0.7985 | 584.129
300.07 K, 16598 kPa, x2 = 0.0998 | 158.42
300.1 K, 4310 kPa, x2 = 0.8988 | 90.757
300.21 K, 10004 kPa, x2 = 0.3997 | 147.143
303.07 K, 10005 kPa, x2 = 0.8988 | 522.742
303.07 K, 11007 kPa, x2 = 0.8988 | 588.449
303.1 K, 11000 kPa, x2 = 0.6015 | 229.981
303.1 K, 12003 kPa, x2 = 0.0998 | 109.095
303.1 K, 18071 kPa, x2 = 0.7985 | 621.015
303.11 K, 4004 kPa, x2 = 0.8988 | 80.364
303.11 K, 9000 kPa, x2 = 0.0998 | 78.724
303.11 K, 9001 kPa, x2 = 0.7985 | 254.341
303.11 K, 17996 kPa, x2 = 0.2017 | 202.897
303.11 K, 18001 kPa, x2 = 0.0998 | 167.945
303.12 K, 3001 kPa, x2 = 0.0998 | 23.673
303.12 K, 10001 kPa, x2 = 0.7985 | 320.908
303.12 K, 11000 kPa, x2 = 0.0998 | 98.851
303.13 K, 3999 kPa, x2 = 0.2017 | 37.359
303.13 K, 4999 kPa, x2 = 0.3997 | 61.796
303.13 K, 6004 kPa, x2 = 0.7985 | 125.434
303.13 K, 6999 kPa, x2 = 0.2017 | 69.612
303.13 K, 11860 kPa, x2 = 0.7985 | 444.556
303.13 K, 11999 kPa, x2 = 0.2017 | 130.323
303.14 K, 3995 kPa, x2 = 0.6015 | 59.469
303.14 K, 7004 kPa, x2 = 0.6015 | 119.411
303.14 K, 8002 kPa, x2 = 0.0998 | 68.892
303.14 K, 17999 kPa, x2 = 0.6015 | 420.157
303.15 K, 5000 kPa, x2 = 0.0998 | 40.895
303.15 K, 8006 kPa, x2 = 0.6015 | 143.46
303.15 K, 9999 kPa, x2 = 0.6015 | 198.747
303.15 K, 10004 kPa, x2 = 0.0998 | 88.738
303.15 K, 11003 kPa, x2 = 0.7985 | 391.279
303.15 K, 12001 kPa, x2 = 0.3997 | 181.298
303.15 K, 14998 kPa, x2 = 0.7985 | 561.073
303.16 K, 4000 kPa, x2 = 0.7985 | 73.078
303.16 K, 4001 kPa, x2 = 0.3997 | 48.004
303.16 K, 5009 kPa, x2 = 0.6015 | 77.914
303.16 K, 6006 kPa, x2 = 0.0998 | 50.034
303.16 K, 7994 kPa, x2 = 0.7985 | 200.301
303.16 K, 8000 kPa, x2 = 0.3997 | 108.241
303.16 K, 8016 kPa, x2 = 0.8988 | 253.316
303.16 K, 8992 kPa, x2 = 0.8988 | 374.284
303.16 K, 8999 kPa, x2 = 0.6015 | 169.77
303.17 K, 4998 kPa, x2 = 0.2017 | 47.685
303.17 K, 5005 kPa, x2 = 0.8988 | 108.149
303.17 K, 6001 kPa, x2 = 0.2017 | 58.474
303.17 K, 9001 kPa, x2 = 0.2017 | 93.089
303.17 K, 14997 kPa, x2 = 0.0998 | 139.317
303.17 K, 18000 kPa, x2 = 0.8988 | 742.988
303.18 K, 4002 kPa, x2 = 0.0998 | 32.139
303.18 K, 5999 kPa, x2 = 0.3997 | 76.379
303.18 K, 6996 kPa, x2 = 0.3997 | 91.801
303.18 K, 7001 kPa, x2 = 0.8988 | 186.521
303.18 K, 7999 kPa, x2 = 0.2017 | 81.148
303.19 K, 7000 kPa, x2 = 0.0998 | 59.247
303.19 K, 12002 kPa, x2 = 0.6015 | 261.85
303.19 K, 15005 kPa, x2 = 0.2017 | 167.871
303.2 K, 5001 kPa, x2 = 0.7985 | 97.235
303.2 K, 8999 kPa, x2 = 0.3997 | 125.402
303.2 K, 10993 kPa, x2 = 0.3997 | 162.067
303.2 K, 10996 kPa, x2 = 0.2017 | 117.65
303.21 K, 7002 kPa, x2 = 0.7985 | 158.82
303.21 K, 9999 kPa, x2 = 0.3997 | 143.458
303.21 K, 15000 kPa, x2 = 0.8988 | 701.018
303.21 K, 17999 kPa, x2 = 0.3997 | 288.435
303.22 K, 9998 kPa, x2 = 0.2017 | 105.223
303.22 K, 15003 kPa, x2 = 0.6015 | 352.168
303.23 K, 6005 kPa, x2 = 0.6015 | 97.567
303.26 K, 6002 kPa, x2 = 0.8988 | 141.868

Reference: the NIST ThermoML archive (doi:10.1016/j.jct.2016.11.009)
